Tested on: MDA-MB-231 human breast cancer cells
Assay: Cell proliferation assay (CellTiter-Glo, 72 hours treatment)
Format: cell-based
Conditions: Homo sapiens; MDA-MB-231 cells, 72 hours at 37° C., CellTiter-Glo; read-out: MDA-MB-231 cell proliferation assay (IC50)
Method in brief: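 IC50 categories: under 100 nM +++, 100–1000 nM ++, above 1000 nM +, derived by sigmoidal curve fitting of CellTiter-Glo luminescence. Cells plated at 2,500 per well, dosed the following day and exposed 72 h at 37 °C versus DMSO control.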

Compound: CNC[C@H]1[C@@H](O)[C@@]2(O)c3c(cc(C#N)nc3OC)O[C@@]2(c2ccc(C#N)cc2)[C@@H]1c1ccccc1 (racemic) [225F, Rac-(5aR,6S,7S,8R,8aS)-5a-(4-cyanophenyl)-8,8a-dihydroxy-1-methoxy-7-((methylamino)methyl)-6-phenyl-5a,7,8,8a-tetrahydro-6H-cyclopenta[4,5]furo[3,2-c]pyridine-3-carbonitrile]
- IC50: < 100 nM

Compound: COc1cncc2c1[C@]1(O)[C@@H](CNC(C)(C)C)[C@H](CO)[C@@H](c3ccccc3)[C@]1(c1ccc(Br)cc1)O2 (racemic) [226F, Rac-(4bR,5R,6R,7S,7aR)-7a-(4-bromophenyl)-5-((tert-butylamino)methyl)-6-(hydroxymethyl)-4-methoxy-7-phenyl-5,6,7,7a-tetrahydro-4bH-cyclopenta[4,5]furo[2,3-c]pyridin-4b-ol]
- IC50: < 100 nM

Compound: CN(C)C[C@H]1[C@@H](C#N)[C@@]2(O)c3ncc(Cl)cc3O[C@@]2(c2ccc(Br)cc2)[C@@H]1c1ccccc1 (racemic) [227F, Rac-(5aR,6S,7R,8S,8aR)-5a-(4-bromophenyl)-3-chloro-7-((dimethylamino)methyl)-8a-hydroxy-6-phenyl-5a,7,8,8a-tetrahydro-6H-cyclopenta[4,5]furo[3,2-b]pyridine-8-carbonitrile]
- IC50: > 1000 nM

Compound: CN(C)C[C@H]1[C@@H](C#N)[C@@]2(O)c3ncc(Cl)cc3O[C@@]2(c2ccc(C#N)cc2)[C@@H]1c1ccccc1 (racemic) [228F, Rac-(5aR,6S,7R,8S,8aR)-3-chloro-5a-(4-cyanophenyl)-7-((dimethylamino)methyl)-8a-hydroxy-6-phenyl-5a,7,8,8a-tetrahydro-6H-cyclopenta[4,5]furo[3,2-b]pyridine-8-carbonitrile]
- IC50: > 1000 nM

Compound: COc1cc2c(c(OC)n1)[C@]1(O)[C@H](O)[C@H](C(=O)N(C)C)[C@@H](c3ccccc3)[C@]1(c1ccc(Br)cc1)O2 (racemic) [229F, rac-(5aR,6S,7R,8R,8aS)-5a-(4-bromophenyl)-8,8a-dihydroxy-1,3-dimethoxy-N,N-dimethyl-6-phenyl-5a,7,8,8a-tetrahydro-6H-cyclopenta[4,5]furo[3,2-c]pyridine-7-carboxamide]
- IC50: < 100 nM

Compound: COc1cc2c(c(OC)n1)[C@]1(O)[C@H](O)[C@H](CN(C)C)[C@@H](c3ccccc3)[C@]1(c1ccc(Br)cc1)O2 (racemic) [230F, Rac-(5aR,6S,7S,8R,8aS)-5a-(4-bromophenyl)-7-((dimethylamino)methyl)-1,3-dimethoxy-6-phenyl-5a,6,7,8-tetrahydro-8aH-cyclopenta[4,5]furo[3,2-c]pyridine-8,8a-diol]
- IC50: < 100 nM

Compound: CCN(CC)C[C@H]1[C@@H](O)[C@@]2(O)c3c(cc(OC)nc3OC)O[C@@]2(c2ccc(C#N)cc2)[C@@H]1c1ccccc1 (racemic) [232F, Rac-4-((5aR,6S,7S,8R,8aS)-7-((diethylamino)methyl)-8,8a-dihydroxy-1,3-dimethoxy-6-phenyl-6,7,8,8a-tetrahydro-5aH-cyclopenta[4,5]furo[3,2-c]pyridin-5a-yl)benzonitrile]
- IC50: < 100 nM

Compound: COc1cncc2c1[C@]1(O)[C@@H](CO)C[C@@H](c3ccccc3)[C@]1(c1ccc(CN)cc1)O2 (racemic) [234F, rac-(4bR,5R,7S,7aR)-7a-(4-(aminomethyl)phenyl)-5-(hydroxymethyl)-4-methoxy-7-phenyl-5,6,7,7a-tetrahydro-4bH-cyclopenta[4,5]furo[2,3-c]pyridin-4b-ol]
- IC50: > 1000 nM

Compound: COc1cncc2c1[C@]1(O)[C@H](O)[C@H](C(=O)N3CC4(COC4)C3)[C@@H](c3ccccc3)[C@]1(c1ccc(Br)cc1)O2 (racemic) [235F, Rac-((4bS,5R,6R,7S,7aR)-7a-(4-bromophenyl)-4b,5-dihydroxy-4-methoxy-7-phenyl-4b,6,7,7a-tetrahydro-5H-cyclopenta[4,5]furo[2,3-c]pyridin-6-yl)(2-oxa-6-azaspiro[3.3]heptan-6-yl)methanone]
- IC50: < 100 nM

Compound: COc1cncc2c1[C@]1(O)[C@H](O)[C@H](CN3CC4(COC4)C3)[C@@H](c3ccccc3)[C@]1(c1ccc(C#N)cc1)O2 (racemic) [236F, Rac-4-((4bS,5R,6S,7S,7aR)-6-((2-oxa-6-azaspiro[3.3]heptan-6-yl)methyl)-4b,5-dihydroxy-4-methoxy-7-phenyl-4b,5,6,7-tetrahydro-7aH-cyclopenta[4,5]furo[2,3-c]pyridin-7a-yl)benzonitrile]
- IC50: 100 to 1000 nM

Compound: COc1cncc2c1[C@]1(O)[C@H](O)[C@H](C(=O)N(C)C3COC3)[C@@H](c3ccccc3)[C@]1(c1ccc(Br)cc1)O2 (racemic) [237F, Rac-(4bS,5R,6R,7S,7aR)-7a-(4-bromophenyl)-4b,5-dihydroxy-4-methoxy-N-methyl-N-(oxetan-3-yl)-7-phenyl-4b,6,7,7a-tetrahydro-5H-cyclopenta[4,5]furo[2,3-c]pyridine-6-carboxamide]
- IC50: < 100 nM

Compound: COc1cncc2c1[C@]1(O)[C@H](O)[C@H](CN(C)C3COC3)[C@@H](c3ccccc3)[C@]1(c1ccc(C#N)cc1)O2 (racemic) [238F, Rac-4-((4bS,5R,6S,7S,7aR)-4b,5-dihydroxy-4-methoxy-6-((methyl(oxetan-3-yl)amino)methyl)-7-phenyl-4b,5,6,7-tetrahydro-7aH-cyclopenta[4,5]furo[2,3-c]pyridin-7a-yl)benzonitrile]
- IC50: 100 to 1000 nM

Compound: COc1cncc2c1[C@]1(O)[C@H](O)[C@H](C(=O)NC3COC3)[C@@H](c3ccccc3)[C@]1(c1ccc(Br)cc1)O2 (racemic) [239F, Rac-(4bS,5R,6R,7S,7aR)-7a-(4-bromophenyl)-4b,5-dihydroxy-4-methoxy-N-(oxetan-3-yl)-7-phenyl-4b,6,7,7a-tetrahydro-5H-cyclopenta[4,5]furo[2,3-c]pyridine-6-carboxamide]
- IC50: < 100 nM

Compound: COc1cncc2c1[C@]1(O)[C@H](O)[C@H](CNC3COC3)[C@@H](c3ccccc3)[C@]1(c1ccc(C#N)cc1)O2 (racemic) [240F, Rac-4-((4bS,5R,6S,7S,7aR)-4b,5-dihydroxy-4-methoxy-6-((oxetan-3-ylamino)methyl)-7-phenyl-4b,5,6,7-tetrahydro-7aH-cyclopenta[4,5]furo[2,3-c]pyridin-7a-yl)benzonitrile]
- IC50: 100 to 1000 nM

Compound: COc1cncc2c1[C@]1(O)[C@H](O)[C@H](C(=O)NCc3ccnn3C)[C@@H](c3ccccc3)[C@]1(c1ccc(Br)cc1)O2 (racemic) [241F, rac-(4bS,5R,6R,7S,7aR)-7a-(4-bromophenyl)-4b,5-dihydroxy-4-methoxy-N-((1-methyl-1H-pyrazol-5-yl)methyl)-7-phenyl-4b,6,7,7a-tetrahydro-5H-cyclopenta[4,5]furo[2,3-c]pyridine-6-carboxamide]
- IC50: < 100 nM

Compound: COc1cncc2c1[C@]1(O)[C@H](O)[C@H](CNCc3ccnn3C)[C@@H](c3ccccc3)[C@]1(c1ccc(C#N)cc1)O2 (racemic) [242F, Rac-4-((4bS,5R,6S,7S,7aR)-4b,5-dihydroxy-4-methoxy-6-((((1-methyl-1H-pyrazol-5-yl)methyl)amino)methyl)-7-phenyl-4b,5,6,7-tetrahydro-7aH-cyclopenta[4,5]furo[2,3-c]pyridin-7a-yl)benzonitrile]
- IC50: 100 to 1000 nM

Compound: COc1cncc2c1[C@]1(O)[C@H](O)[C@H](CNC3CC3)[C@@H](c3ccccc3)[C@]1(c1ccc(C#N)cc1)O2 (racemic) [244F, Rac-4-((4bS,5R,6S,7S,7aR)-6-((cyclopropylamino)methyl)-4b,5-dihydroxy-4-methoxy-7-phenyl-4b,5,6,7-tetrahydro-7aH-cyclopenta[4,5]furo[2,3-c]pyridin-7a-yl)benzonitrile]
- IC50: < 100 nM

Compound: COc1cncc2c1[C@]1(O)[C@H](O)[C@H](C(=O)N(C)C3CC3)[C@@H](c3ccccc3)[C@]1(c1ccc(Br)cc1)O2 (racemic) [245F, Rac-(4bS,5R,6R,7S,7aR)-7a-(4-bromophenyl)-N-cyclopropyl-4b,5-dihydroxy-4-methoxy-N-methyl-7-phenyl-4b,6,7,7a-tetrahydro-5H-cyclopenta[4,5]furo[2,3-c]pyridine-6-carboxamide]
- IC50: 100 to 1000 nM

Compound: COc1cncc2c1[C@]1(O)[C@H](O)[C@H](CN(C)C3CC3)[C@@H](c3ccccc3)[C@]1(c1ccc(C#N)cc1)O2 (racemic) [246F, Rac-4-((4bS,5R,6S,7S,7aR)-6-((cyclopropyl(methyl)amino)methyl)-4b,5-dihydroxy-4-methoxy-7-phenyl-4b,5,6,7-tetrahydro-7aH-cyclopenta[4,5]furo[2,3-c]pyridin-7a-yl)benzonitrile]
- IC50: 100 to 1000 nM

Compound: COc1cncc2c1[C@]1(O)[C@H](O)[C@H](C(=O)N(C)CCF)[C@@H](c3ccccc3)[C@]1(c1ccc(Br)cc1)O2 (racemic) [247F, Rac-(4bS,5R,6R,7S,7aR)-7a-(4-bromophenyl)-N-(2-fluoroethyl)-4b,5-dihydroxy-4-methoxy-N-methyl-7-phenyl-4b,6,7,7a-tetrahydro-5H-cyclopenta[4,5]furo[2,3-c]pyridine-6-carboxamide]
- IC50: < 100 nM

Compound: COc1cncc2c1[C@]1(O)[C@H](O)[C@H](C(=O)N(C)Cc3ccnn3C)[C@@H](c3ccccc3)[C@]1(c1ccc(Br)cc1)O2 (racemic) [249F, Rac-(4bS,5R,6R,7S,7aR)-7a-(4-bromophenyl)-4b,5-dihydroxy-4-methoxy-N-methyl-N-((1-methyl-1H-pyrazol-5-yl)methyl)-7-phenyl-4b,6,7,7a-tetrahydro-5H-cyclopenta[4,5]furo[2,3-c]pyridine-6-carboxamide]
- IC50: < 100 nM

Compound: COc1cncc2c1[C@]1(O)[C@H](O)[C@H](C(=O)N(C)CC(C)(C)O)[C@@H](c3ccccc3)[C@]1(c1ccc(Br)cc1)O2 (racemic) [251F, Rac-(4bS,5R,6R,7S,7aR)-7a-(4-bromophenyl)-4b,5-dihydroxy-N-(2-hydroxy-2-methylpropyl)-4-methoxy-N-methyl-7-phenyl-4b,6,7,7a-tetrahydro-5H-cyclopenta[4,5]furo[2,3-c]pyridine-6-carboxamide]
- IC50: < 100 nM
